Measurements published in patent US9475765B2, “Polymorphs of N- (2 -methoxybenzoyl) -4- [ (methylaminocarbonyl) amino] benzenesulfonamide” (Syngenta Limited, priority 2012, dated 2016).

Experiment: Stability of polymorphs: slurry of Form 1, Form 2 and Form 3 in ethanol, crystal form examined by powder X-ray diffraction
Assay type: physicochemical
Description: Powder X-ray diffraction analysis of solid material was carried out using the Briker D8 powder diffractometer. Samples were mounted in Perspex sample holders and the samples flattened. The sample holder was rotated and X-rays were collected from 4° to 34° 2-theta, with a scan time of 25 to 30 minutes depending on the pattern intensity. Approximately 0.1 g each of Form 1, Form 2 and Form 3 were added to 10 ml of ethanol at 50° C. and 60° C. until there were solids out of solution (a slurry). The temperature was maintained with stirring and the crystal form examined after 2 and 8 days.

[1] = about 0.1 g each of Form 1, Form 2 and Form 3 in 10 ml ethanol, stirred slurry at 50° C. and 60° C.

crystal form present in slurry after 2 days [1] | crystal form present in slurry after 8 days (about 0.1 g each of Form 1, Form 2 and Form 3 in 10 ml ethanol, stirred slurry at 50° C. and 60° C., 8 days in total) | stability relative to the other polymorphs (general statement in the description, Form 2 compared with Form 1 and Form 3) | SMILES
no evidence of Form 1 | – | – | CNC(=O)Nc1ccc(S(=O)(=O)NC(=O)c2ccccc2OC)cc1 [Form 1, N-(2-methoxybenzoyl)-4-[(methylaminocarbonyl)amino]benzenesulfonamide]
still present | complete conversion to Form 2 | stable polymorph | CNC(=O)Nc1ccc(S(=O)(=O)NC(=O)c2ccccc2OC)cc1 [Form 2, N-(2-methoxybenzoyl)-4-[(methylaminocarbonyl)amino]benzenesulfonamide]
still present | – | – | CNC(=O)Nc1ccc(S(=O)(=O)NC(=O)c2ccccc2OC)cc1 [Form 3, N-(2-methoxybenzoyl)-4-[(methylaminocarbonyl)amino]benzenesulfonamide]
